Results from EP1094724B1, “USE OF A PHENOL OXIDISING ENZYME IN THE TREATMENT OF TOBACCO” (priority 1998, dated 2000).

Tested on: Myceliopthora thermophila laccase (MtL)
Assay: Laccase MtL treatment of tobacco extract, HPLC analysis of phenolic compounds (peak area)
Assay type: biochemical
Settings: for Remaining content (% remaining) (peak area relative to the content in the extract): before drying
Protocol: The content of phenolic compounds is analysed by HPLC according to the procedure described below: • Liquid chromatographic system: E.g. Shimadzu SCL-6B System Controller, and two LC-6A Liquid Chromatograph (pumps) or Waters model 600 E • Injector: Shimadzu SIL 6B Autoinjector or Waters 715 Ultra Wisp. UV detector: Shimadzu SPD-6A Photodiode Array UV-VIS detector or Waters Model 481 • Software: CLASS LC10 / CLASS-MXA or Maxima 820 • Column: Supelcosil™ LC-18 25 cm x 4.6 mm (Supelco, #5-8298) or µ Bondapack C198 stainless steel column, 30 cm x 4 mm i.d., 10 µm particle size. • Guard column: none or Guard-Pak from Waters packed with the same material. • Temperature: Ambient • Mobile phase flow: 1.3 ml/min • Injection volume: 20µl • Wavelength: 350 nm • Eluent: Binary gradient (linear) mixture of A: KH2PO4 (28.4 g in 2000 ml de-mineralised water) and B: methanol (please see table 1 and figure 1). The eluent is filtered through a 0.45 µm filter and degassed before use.
Prior to HPLC analysis, the samples were filtered through a 0.45 µm filter or smaller, e.g. a sterile Sartorius Minisart 0.45 µm filter (#16555) or a Millipore Millex-GS 0.22 µm (#SBGS 0 25 SB) to remove the haze/precipitate normally formed during enzyme treatment. Normally, no dilution of the extract/sample was made before HPLC analysis.
For qualitative and semi-quantitative measurements, each of the standards was dissolved in 96% ethanol, and then mixed in a ratio and at a concentration which was within the range in the tobacco extract. For semi-quantification of the phenolic compounds in the tobacco extract, and as a measure of development in concentration of the various compounds contained in the extract, decrease in peak area relative to the peak area before addition of enzyme was used. As a measure of overall efficiency of the process, degree of reduction in total peak area of all peaks (not only the major ones) in the HPLC chromatogram with retention time Rt>3 min was used (named: "All peaks").
Unless otherwise indicated, the tobacco was extracted at a laboratory scale with water according to the following procedure: 1000 ml demineralised water is heated to 45°C. 30 g tobacco (approx. 25 g d.m.) is added and the mixture stirred by a magnetic bar and occasionally with a stick. After 15 minutes the tobacco residue is separated from the tobacco extract by vacuum filtration (Whatman glass micro fibre GF/F 11 cm). The filtered extract is then vacuum filtered at least once more or until it is completely clear. Yield was around 900 ml tobacco extract. […] No buffer was thus included in any of the trials. D.m. content of the extract was approximately 2.1%.
Tobacco extract (typically 50-100 ml) was poured into a glass beaker and a magnetic bar was added. No pH adjustments were made, and no buffer was added. The tobacco extract was heated to and controlled at 55°C during the entire enzyme treatment by means of a heating plate and a thermostat. Intensive submerse aeration was applied by blowing atmospheric air into the extract by means of a metal sinter (metal suction filter normally used for HPLC). The enzyme in question (TvL or PpL) was added to the desired concentration. Shortly after addition of laccase, the colour of the tobacco extract turned dark brown to black, and with time the liquor became turbid and a precipitate formed. The liquor was sampled with intervals for HPLC analysis.
It is obvious, that MtL can also be used to remove the phenolic compounds. It is evident, that using a dosage of MtL of approximately 0.63 µg/ml, longer processing time is needed compared to using a dosage of 6.3 µg/ml to obtain the same degree of reduction of the phenolic compounds, and that almost complete removal can be obtained with a dosage of approximately 0.63 µg/ml.
Enzyme treatment: MtL enzyme was added at various concentrations in the range 2.5 µg/ml - 6.3 µg/ml. A fixed processing time of 20 minutes was used. […]

COc1cc2ccc(=O)oc2cc1O [S, 7-Hydroxy-6-methoxy-2H-1-benzopyran-2-one]
Residual amount (% remaining) (peak area) (0 % pO2, 3.8 µg/ml MtL for 20 minutes at pH 5.4 and 55°C): 100% | Residual amount (% remaining) (peak area) (2.5 µg MtL /ml, 20 minutes at pH 5.4 and 55°C, intensive submerse aeration): 97% | Residual amount (% remaining) (peak area) (3.8 µg MtL /ml, 20 minutes at pH 5.4 and 55°C, intensive submerse aeration): 69% | Residual amount (% remaining) (peak area) (6.3 µg MtL /ml, 20 minutes at pH 5.4 and 55°C, intensive submerse aeration): 52% | Residual amount (% remaining) (peak area) (30 % pO2, 3.8 µg/ml MtL for 20 minutes at pH 5.4 and 55°C): 75% | Residual amount (% remaining) (peak area) (50 % pO2, 3.8 µg/ml MtL for 20 minutes at pH 5.4 and 55°C): 59% | Residual amount (% remaining) (peak area) (90 % pO2, 3.8 µg/ml MtL for 20 minutes at pH 5.4 and 55°C): 45% | % Remaining (peak area) after various treatment times (10 min, approx. 6.3 µg/ml MtL at pH 5.4 and 55°C, intensive submerse aeration): 78% | % Remaining (peak area) after various treatment times (20 min, approx. 6.3 µg/ml MtL at pH 5.4 and 55°C, intensive submerse aeration): 52% | % Remaining (peak area) after various treatment times (67 min, approx. 0.63 µg/ml MtL at pH 5.4 and 55°C, intensive submerse aeration): 90% | % Remaining (peak area) after various treatment times (150 min, approx. 0.63 µg/ml MtL at pH 5.4 and 55°C, intensive submerse aeration): 76% | Remaining content (% remaining) (peak area relative to the content in the extract) (Sample 4 enzyme treated extract after separation from precipitate, approximately 7.5 µg/ml MtL, 30 minutes, 53-56°C, pH 5.5): 47% | Remaining content (% remaining) (peak area relative to the content in the extract) (Sample 6 enzyme and bentonite treated extract separated from precipitate and bentonite, approximately 7.5 µg/ml MtL 30 minutes, then bentonite 15 minutes at 50-55°C): 44%
